Values joined by “and” are separate entries in the source; they are usually repeats but may differ in a detail not shown here. Equal values may be shown once.
How the values were obtained:
Assay type in all cases: cell-based
[1] = tested on: Pseudomonas aeruginosa
[2] = tested on: Staphylococcus aureas
[3] = tested on: Pseudomonas aeruginosa and Staphylococcus aureas

## CC/C=C/CCCCCCCC(=O)NCCN1CC[N+](C)=C1CCCCCCC/C=C/CC [C12-13, C12 DETA Quat]
[1]
  % Kill: 27.1% and 13.7%
[2]
  % Kill: 48.3% and 33.1%
[3]
  Overall Rating: good
